# Data from PubChem BioAssay (NCI).
# Where “and” joins values, the source holds several entries; their conditions need not be identical. Identical values can stand only once.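 Compound exposure: 48 hours, 5 concentrations, 96-well plates. The concentration for 50% growth inhibition is given as GI50. TGI is the concentration that stops growth completely.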
# Key:
# Test in all cases: NCI anticancer screen, dose series, 48 h
# [1] = system: HL-60(TB) leukemia
# [2] = system: ACHN renal
# [3] = system: OVCAR-3 ovarian
# [4] = system: NCI-H23 lung
# [5] = system: HOP-62 NSCLC
# [6] = system: OVCAR-8 ovarian
# [7] = system: U251 CNS
# [8] = system: SF-295 CNS
# [9] = system: M14 melanoma
# [10] = system: SR leukemia
Compound,TGI [1],TGI [2],TGI [3] [µM],TGI [4] [µM],TGI [5] [µM],TGI [6],TGI [7] [µM],TGI [8],GI50 [1],TGI [9] [µM],GI50 [3],TGI [10] [µM],GI50 [4] [µM],GI50 [5] [µM],GI50 [6] [µM],GI50 [7] [µM],GI50 [8] [µM],GI50 [2] [µM],GI50 [10] [µM]
COC(=O)c1c(C)cccc1/C=C1/Cc2c(C)cccc2C1=O,> 100 µM,> 100 µM,> 100,> 100,> 100,> 100 µM,> 100,> 100 µM,,,,,,,,,,,
CSC1CC2C(CC1(C)O)C2(C)C (configuration not stated),70.5 µM and > 100 µM,> 100 µM,> 100,> 100,> 100,> 100 µM,> 100,,19 µM and > 100 µM,> 100,38.5 µM and > 100 µM,,,,,,,,
C/C(=C\c1ccccc1)C(=O)CCN1CCOCC1,> 74.3 µM,,34.2,32,> 100,41.4 µM,30.7,> 100 µM,,,,,,,,,,,
O=c1cc(/C=C/c2ccc(O)c(O)c2)oc(/C=C/c2ccc(O)c(O)c2)c1,,16.1 µM,10.8,25.1,20.2,22.4 µM,9.57,22.7 µM,,16.5,,8.52,,,,,,,
Nn1c(CCCCCCCCc2nnc(COc3c(O)ccc4ccccc34)n2N)nnc1COc1c(O)ccc2ccccc12,,> 100 µM,,> 100,,,> 100,> 100 µM,,> 100,,,,,,,,,
O=C(CN1CCCCC1)CC(O)(C(F)(F)F)C(F)(F)F,> 100 µM,> 100 µM,> 100,> 100,,> 100 µM,> 100,> 100 µM,,> 100,,> 100,,,,,,,
Cc1ccc(S(=O)(=O)Oc2cc(N)c3c(n2)CCC3)cc1,> 100 µM,> 100 µM,> 100,> 100,> 100,> 100 µM,> 100,> 100 µM,,> 100,,,,,,,,,
C=C1C(O)C2(O)OCC34C(CC5C(C)=CC(=O)C(O)C5(C)C23)OC(=O)C(OC(=O)C/C=C(\C)CCCCC)C14 (configuration not stated),,0.00856 µM and 0.0518 µM,< 0.001,,,0.00565 µM and 0.0192 µM and 0.0188 µM,,0.00567 µM and 0.0245 µM and 0.0174 µM,< 0.001 µM,0.00141,< 0.001 µM,,< 0.001,< 0.001,< 0.001,< 0.001,0.0013,,
COc1cc(/C=C/C(=O)O)ccc1C(=O)O/C=C/c1ccccc1,> 100 µM,,> 100,> 100,> 100,> 100 µM,> 100,> 100 µM,,,,,,,,,,,
COc1ccc(CC(CO)NC(=O)OCc2ccccc2)cc1Oc1ccc(CC(CO)NC(=O)OCc2ccccc2)cc1 (configuration not stated),,,27.4,33.8,31.8,,63.9,24.6 µM,,23.3,,> 100,,,,,,,
O=C1/C(=C/c2ccccc2S)N=C(c2ccccc2)N1c1nc2ccc(Sc3ccccc3)cc2[nH]1,52.1 µM,> 100 µM,57.2,> 100,> 100,> 100 µM,51.7,72.5 µM,,49,,,,,,,,,
Oc1ccc(-c2nnc3sc(-c4ccc(F)cc4)nn23)cc1,> 100 µM,> 100 µM,> 100,84.9,,> 100 µM,41.9,59.9 µM,> 100 µM,,18.6 µM,> 100,27.8,,48.3,17.3,18.1,24.7,15.1
c1ccc2c(c1)[nH]c1nc3cc(-c4ccc5nc6c(nc5c4)[nH]c4ccccc46)ccc3nc12,> 100 µM,> 100 µM,,> 100,> 100,> 100 µM,> 100,> 100 µM,,> 100,,,,,,,,,
COc1ccc(N[C@H](CSc2ccc(C)cc2)c2ccc(F)cc2)cc1,,> 100 µM,> 100,> 100,> 100,> 100 µM,> 100,> 100 µM,,> 100,,> 100,,,,,,,
CN(C)c1ccc(-c2c(C#N)c(S)n(NS(=O)(=O)c3ccccc3)c(=O)c2C#N)cc1,85.2 µM,> 100 µM,> 100,> 100,,56.8 µM,> 100,> 100 µM,,> 100,,> 100,,,,,,,
CN(C)C(CN)CC1=C(CC(CN)N(C)C)CCC1 (configuration not stated),> 100 µM,,> 100,> 100,> 100,> 100 µM,> 100,> 100 µM,,,,,,,,,,,
Nc1nn2c(C(Br)Br)cc(C(Br)Br)nc2c1[N+](=O)[O-],0.431 µM,2.1 µM,,4.61,,,2.54,4.46 µM,,1.81,,,,,,,,,
